Measured values: US20240009173A1, “Use of 5-HT3-Targeting Drugs for Treatment of Acute Kidney Injury” (priority 2020, published 2024)
Where two headings read alike, the source gives them in different places.

Tests used:
patients with AKI [1] = settings: human, in vivo
patients with AKI [2] = settings: human, in vivo; remark: listed apart in the source
all ICU patients = settings: cited from earlier work
ICU patients with AKI = settings: cited from earlier work
patients with AKI [3] = system: patients with AKI; design: species or system human; settings: in vivo
[4] = literature and/or clinical trials

| Compound | Death rate in eICU database (patients with AKI [1]) | Death rate in MIMIC III database (patients with AKI [2]) | Reported for protecting effect in all ICU patients (all ICU patients; [4]) | Reported for protecting effect in ICU patients with AKI (ICU patients with AKI; [4]) | Coefficient (patients with AKI [3]) | Reported for protecting effect in all ICU patients (all ICU patients) | Reported for protecting effect in ICU patients with AKI (ICU patients with AKI) |
| --- | --- | --- | --- | --- | --- | --- | --- |
| C[C@H]1COc2c(N3CCN(C)CC3)c(F)cc3c(=O)c(C(=O)O)cn1c23 [Levofloxacin] | 146.84 per 1,000 patients | 270.20 per 1,000 patients | – | – | – | – | – |
| OC(Cn1cncn1)(Cn1cncn1)c1ccc(F)cc1F [Fluconazole] | – | 333.33 per 1,000 patients | Y^5 | Y^6 | – | – | – |
| N[C@@H](Cc1cc(I)c(Oc2cc(I)c(O)c(I)c2)c(I)c1)C(=O)O [Levothyroxine] | 109.02 per 1,000 patients | 218.39 per 1,000 patients | – | – | – | – | – |
| NCCCC[C@H](N[C@@H](CCc1ccccc1)C(=O)O)C(=O)N1CCC[C@H]1C(=O)O [Lisinopril] | 21.71 per 1,000 patients | 53.11 per 1,000 patients | Y^14 | Y^15 | −0.049 | – | – |
| CC(=O)Nc1ccc(O)cc1 [Acetaminophen] | 123.47 per 1,000 patients | 181.26 per 1,000 patients | N | N | −0.040 | – | – |
| CN[C@H](CC(C)C)C(=O)N[C@H]1C(=O)N[C@@H](CC(N)=O)C(=O)N[C@H]2C(=O)N[C@H]3C(=O)N[C@H](C(=O)N[C@H](C(=O)O)c4cc(O)cc(O)c4-c4cc3ccc4O)[C@H](O)c3ccc(c(Cl)c3)Oc3cc2cc(c3O[C@@H]2O[C@H](CO)[C@@H](O)[C@H](O)[C@H]2O[C@H]2C[C@](C)(N)[C@H](O)[C@H](C)O2)Oc2ccc(cc2Cl)[C@H]1O [Vancomycin] | 229.29 per 1,000 patients | 300.03 per 1,000 patients | – | – | – | – | – |
| CO/N=C(\C(=O)N[C@@H]1C(=O)N2C(C(=O)[O-])=C(C[N+]3(C)CCCC3)CS[C@H]12)c1csc(N)n1 [Cefepime] | 228.51 per 1,000 patients | 340.81 per 1,000 patients | – | – | – | – | – |
| OC[C@H]1O[C@@H](O[C@@H]2[C@@H](CO)OC(O)(CO)[C@H]2O)[C@H](O)[C@@H](O)[C@H]1O (mixture of isomers) [Lactulose] | 233.56 per 1,000 patients | 326.35 per 1,000 patients | N | N | – | – | – |
| Glucagon | 129.74 per 1,000 patients | 176.04 per 1,000 patients | – | – | −0.050 | – | – |
| CC(C)[N+]1(C)[C@@H]2CC[C@H]1C[C@@H](OC(=O)C(CO)c1ccccc1)C2 (stereo partly drawn) [Ipratropium] | 172.83 per 1,000 patients | 258.87 per 1,000 patients | – | – | – | – | – |
| Insulin | 172.01 per 1,000 patients | 241.12 per 1,000 patients | – | – | – | – | – |
| C[C@H](CS)C(=O)N1CCC[C@H]1C(=O)O [Captopril] | – | 133.04 per 1,000 patients | Y^18 | Y^19 | −0.044 | – | – |
| C[C@@H]1C[C@H]2[C@@H]3CCC4=CC(=O)C=C[C@]4(C)[C@@]3(F)[C@@H](O)C[C@]2(C)[C@@]1(O)C(=O)CO [Dexamethasone] | 58.14 per 1,000 patients | 375 per 1,000 patients | – | – | – | – | – |
| NC(N)=Nc1nc(CSCCC(N)=NS(N)(=O)=O)cs1 [Famotidine] | 184.42 per 1,000 patients | 260.79 per 1,000 patients | – | – | – | – | – |
| COc1ccc([C@@H]2Sc3ccccc3N(CCN(C)C)C(=O)[C@@H]2OC(C)=O)cc1 [Diltiazem] | 121.74 per 1,000 patients | 274.96 per 1,000 patients | – | – | – | – | – |
| COc1ccnc(C[S+]([O-])c2nc3ccc(OC(F)F)cc3[nH]2)c1OC (stereo not drawn) [Pantoprazole] | 151.82 per 1,000 patients | 254.46 per 1,000 patients | – | – | −0.025 | – | – |
| O=[N+]([O-])OCC(CO[N+](=O)[O-])O[N+](=O)[O-] [Nitroglycerin] | 758.55 per 1,000 patients | 192.42 per 1,000 patients | – | – | – | N | N |
| CC1=C(C/C=C(\C)CCC[C@H](C)CCC[C@H](C)CCCC(C)C)C(=O)c2ccccc2C1=O [Phytonadione] | 335.33 per 1,000 patients | 364.17 per 1,000 patients | Y | N | – | – | – |
| CC(C)(C)NCC(O)c1ccc(O)c(CO)c1 (stereo not drawn) [Albuterol] | 174.59 per 1,000 patients | 257.20 per 1,000 patients | – | – | – | – | – |
| [H]/N=C(\N/C(=N/[H])NCCCCCCNC(=N)NC(=N)Nc1ccc(Cl)cc1)Nc1ccc(Cl)cc1 [Chlorhexidine] | 222.98 per 1,000 patients | 328.48 per 1,000 patients | – | – | – | – | – |
| Cc1ncc([N+](=O)[O-])n1CCO [Metronidazole] | 230.12 per 1,000 patients | 338.05 per 1,000 patients | – | – | – | – | – |
| C[C@]12C=CC(=O)C=C1CC[C@@H]1[C@@H]2C(=O)C[C@@]2(C)[C@H]1CC[C@]2(O)C(=O)CO [Prednisone] | 60.49 per 1,000 patients | 191.30 per 1,000 patients | – | – | – | – | – |
| CCN1CCN(C(=O)N[C@@H](C(=O)N[C@@H]2C(=O)N3[C@@H]2SC(C)(C)[C@@H]3C(=O)O)c2ccccc2)C(=O)C1=O [Piperacillin] | 200.39 per 1,000 patients | 336.96 per 1,000 patients | Y | N | – | – | – |
| CC(C)c1cccc(C(C)C)c1O [Propofol] | 261.45 per 1,000 patients | 287.82 per 1,000 patients | – | – | – | Y^16 | Y^17 |
| C=CC[C@@H]1/C=C(\C)C[C@H](C)C[C@H](OC)[C@H]2O[C@@](O)(C(=O)C(=O)N3CCCC[C@H]3C(=O)O[C@H](/C(C)=C/[C@@H]3CC[C@@H](O)[C@H](OC)C3)[C@H](C)[C@@H](O)CC1=O)[C@H](C)C[C@@H]2OC [Tacrolimus] | 40 per 1,000 patients | 153.28 per 1,000 patients | – | – | – | – | – |
| CC(=O)Oc1ccccc1C(=O)O [Aspirin] | 126.32 per 1,000 patients | 178.97 per 1,000 patients | – | – | – | – | – |
| CC(C)c1c(C(=O)Nc2ccccc2)c(-c2ccccc2)c(-c2ccc(F)cc2)n1CC[C@@H](O)C[C@@H](O)CC(=O)O [Atorvastatin] | 88.66 per 1,000 patients | 156.06 per 1,000 patients | – | – | – | – | – |
| CC(=O)Oc1ccc(C(c2ccc(OC(C)=O)cc2)c2ccccn2)cc1 [Bisacodyl] | 156.59 per 1,000 patients | 194.46 per 1,000 patients | – | – | −0.021 | – | – |
| NNc1nncc2ccccc12 [Hydralazine] | 80.60 per 1,000 patients | 155.12 per 1,000 patients | – | – | −0.035 | – | – |
